Source: BindingDB's records for doi:10.1021/jm9707232 (Sapienza University of Rome, 1998)

Target: Integrase (Human immunodeficiency virus 1, UniProt Q7ZJM1)
Assay: Compound concentration required to reduce HIV-1 Integrase 3'-processing activity by 50%

Sequence of Integrase (Q7ZJM1 whole entry): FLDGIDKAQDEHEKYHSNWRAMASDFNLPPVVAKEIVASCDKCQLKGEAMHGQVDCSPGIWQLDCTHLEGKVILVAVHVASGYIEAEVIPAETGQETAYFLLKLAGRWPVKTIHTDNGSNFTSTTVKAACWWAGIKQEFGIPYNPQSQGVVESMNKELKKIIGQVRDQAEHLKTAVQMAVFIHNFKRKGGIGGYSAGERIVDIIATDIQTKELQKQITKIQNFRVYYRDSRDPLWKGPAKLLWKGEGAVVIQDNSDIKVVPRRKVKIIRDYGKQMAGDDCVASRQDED

O=C(C=Cc1ccccc1)CC(=O)C=Cc1ccccc1 [5-Hydroxy-1,7-diphenylhepta-1,4,6-trien-3-one]
IC50: > 100 µM

COc1ccc(C=CC(=O)CC(=O)C=Cc2ccc(OC)c(OC)c2)cc1OC [(1E,4Z,6E)-1,7-bis(3,4-dimethoxyphenyl)-5-hydroxyhepta-1,4,6-trien-3-one]
IC50: > 100 µM
